One data set concerns the target T1, Vasopressin V2 (Rattus norvegicus, UniProt Q00788).
T1 construct: vasopressin V2 receptors of the nephrons of the kidney; tissue Charles River Laboratories, Inc; host or cells: whole living animal (kidney collecting ducts)
Kind of data set: Vasopressin V2 agonist effects in normal conscious water-loaded rats. The format is in vivo. The conditions noted are these: Sprague-Dawley (CD) rats, urine collected four hours; for Urine Volume (% decrease): 10 mg per kg oral, percent decrease in urine volume vs. control; for Osmolality (% Increase): 10 mg/kg oral, change in osmolality as percent of control. The text has this: Vasopressin V2 Agonist Effects of Test Compounds in Normal Conscious Water-Loaded Rats:
Male or female normotensive Sprague-Dawley rats (Charles River Laboratories, Inc., Kingston, N.Y.) of 350-500 g body weight were supplied with standard rodent diet (Purina Rodent Lab. Chow 5001) and water ad libitum. On the day of test, rats were placed individually into metabolic cages equipped with devices to separate the feces from the urine and containers for collection of urine. Test compound or reference agent was given at an oral dose of 10 mg/kg in a volume of 10 ml/kg. The vehicle used was 20% dimethylsulfoxide (DMSO) in 2.5% preboiled corn starch. Thirty minutes after dosing the test compound, rats were gavaged with water at 30 ml/kg into the stomach using a feeding needle. During the test, rats were not provided with water or food. Urine was collected for four hours after dosing of the test compound. At the end of four hours, urine volume was measured. Urinary osmolality was determined using a Fiske One-Ten Osmometer (Fiske Associates, Norwood, Mass., 02062) or an Advanced CRYOMATIC Osmometer, Model 3C2 (Advanced Instruments, Norwood, Mass.). Determinations of Na^+, K^+ and Cl^− ion were carried out using ion specific electrodes in a Beckman SYNCHRON EL-ISE Electrolyte System analyzer. The urinary osmolality should increase proportionally. In the screening test, two rats were used for each compound. If the difference in the urine volume of the two rats was greater than 50%, a third rat was used.

T1 sequence (Q00788 whole entry): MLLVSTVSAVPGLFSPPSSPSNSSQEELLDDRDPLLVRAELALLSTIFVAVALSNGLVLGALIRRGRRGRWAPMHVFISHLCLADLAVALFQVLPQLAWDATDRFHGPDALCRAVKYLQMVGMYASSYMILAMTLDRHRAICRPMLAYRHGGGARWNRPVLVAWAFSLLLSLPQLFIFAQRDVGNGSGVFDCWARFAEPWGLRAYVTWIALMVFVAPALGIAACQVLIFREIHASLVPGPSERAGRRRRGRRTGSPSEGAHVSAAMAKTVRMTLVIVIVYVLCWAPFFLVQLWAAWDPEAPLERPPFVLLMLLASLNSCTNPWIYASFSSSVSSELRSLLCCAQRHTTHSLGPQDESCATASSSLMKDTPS

As for `Cc1ccn(-c2ccc(C(=O)N3Cc4cccn4Cc4ccccc43)c(Cl)c2)n1` [Example 9A], at Vasopressin V2, the “Urine Volume (% decrease)” value amounted to 70% and the “Osmolality (% Increase)” value is 325%.
What is called melting point is the temperature, or range, at which the solid turns liquid. For `Cc1cnn(-c2ccc(C(=O)N3C=C4CC=CN4Cc4ccccc43)cc2)c1` [Example 60, [4-(4-Methyl-pyrazol-1-yl)-phenyl]-(5H,1H-pyrrolo[2,1-c][1,4]-benzodiazepin-10-yl)-methanone], the melting point was in the range of 179 to 181 °C.
As for `Cn1ncnc1-c1ccc(C(=O)N2Cc3cccn3Cc3ccccc32)c(Cl)c1` [Example 84, [2-Chloro-4-(2-methyl-2H-[1,2,4]triazol-3-yl)-phenyl]-(5H,11H-pyrrolo [2,1-c][1,4]benzodiazepin-10)-methanone], at Vasopressin V2, the “Urine Volume (% decrease)” value is recorded as 56% and the “Osmolality (% Increase)” value is given as 291%.
Regarding `C#Cc1ccc(C(=O)N2Cc3cccn3Cc3ccccc32)c(Cl)c1` [Example 123, [2-Chloro-4-ethynyl-phenyl](5H-11H-pyrrolo [1,2-c][1,4]benzodiazepin-10-yl)methanone.], on Vasopressin V2, the “Urine Volume (% decrease)” value worked out at 88% and the “Osmolality (% Increase)” value turned out to be 663%.
